Source: ChEMBL document CHEMBL4371033, “Highly Potent and Selective Plasmin Inhibitors Based on the Sunflower Trypsin Inhibitor-1 Scaffold Attenuate Fibrinolysis in Plasma” (J Med Chem, 2019)
Residues, ends and D or L forms follow the SMILES beside them.

The compounds below were run against Plasminogen (Homo sapiens, UniProt P00747) (assay: Inhibition of human plasmin using Ac-RM(O2)YR-pNA as substrate after 30 mins).
Sequence of Plasminogen (P00747 97-580 limits assumed): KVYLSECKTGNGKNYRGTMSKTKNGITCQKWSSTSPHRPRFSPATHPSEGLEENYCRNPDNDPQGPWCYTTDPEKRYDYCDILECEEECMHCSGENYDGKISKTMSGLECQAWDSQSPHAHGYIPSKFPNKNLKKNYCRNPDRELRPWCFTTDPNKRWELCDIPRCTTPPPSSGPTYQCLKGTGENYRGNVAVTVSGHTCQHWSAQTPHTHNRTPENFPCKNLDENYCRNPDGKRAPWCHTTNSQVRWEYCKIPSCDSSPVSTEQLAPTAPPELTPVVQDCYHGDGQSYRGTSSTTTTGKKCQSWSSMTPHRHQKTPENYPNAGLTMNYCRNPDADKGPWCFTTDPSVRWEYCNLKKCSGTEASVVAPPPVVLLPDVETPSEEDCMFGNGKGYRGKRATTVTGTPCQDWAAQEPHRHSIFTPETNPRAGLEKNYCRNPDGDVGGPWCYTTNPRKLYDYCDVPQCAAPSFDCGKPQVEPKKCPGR
Sequence of Plasminogen (P00747 581-810 limits assumed): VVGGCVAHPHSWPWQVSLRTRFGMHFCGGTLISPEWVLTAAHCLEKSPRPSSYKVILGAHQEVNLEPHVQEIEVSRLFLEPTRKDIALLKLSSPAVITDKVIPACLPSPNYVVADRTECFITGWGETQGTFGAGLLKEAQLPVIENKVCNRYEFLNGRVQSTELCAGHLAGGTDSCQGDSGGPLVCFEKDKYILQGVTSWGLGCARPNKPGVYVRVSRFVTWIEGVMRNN

Structure (SMILES)	Ki [nM]
CC[C@H](C)[C@@H]1NC(=O)[C@@H]2CCCN2C(=O)[C@@H]2CCCN2C(=O)[C@H](CCCNC(=N)N)NC(=O)[C@H](CO)NC(=O)[C@H](CCCNC(=N)N)NC(=O)[C@H](Cc2ccc(O)cc2)NC(=O)[C@@H]2CSSC[C@H](NC1=O)C(=O)N[C@@H](Cc1ccccc1)C(=O)N1CCC[C@H]1C(=O)N[C@@H](CC(=O)O)C(=O)NCC(=O)N[C@@H](CCCNC(=N)N)C(=O)N2 (HELM PEPTIDE1{C.F.P.D.G.R.C.Y.R.S.R.P.P.I}$PEPTIDE1,PEPTIDE1,1:R3-7:R3|PEPTIDE1,PEPTIDE1,1:R1-14:R2$$$V2.0)	16
CC[C@H](C)[C@@H]1NC(=O)[C@@H]2CCCN2C(=O)[C@@H]2CCCN2C(=O)[C@H](CCCNC(=N)N)NC(=O)[C@H](CO)NC(=O)[C@H](CCCCN)NC(=O)[C@H](Cc2ccc(O)cc2)NC(=O)[C@@H]2CSSC[C@H](NC1=O)C(=O)N[C@@H](Cc1ccccc1)C(=O)N1CCC[C@H]1C(=O)N[C@@H](CC(N)=O)C(=O)NCC(=O)N[C@@H](CCCNC(=N)N)C(=O)N2 (HELM PEPTIDE1{C.F.P.N.G.R.C.Y.K.S.R.P.P.I}$PEPTIDE1,PEPTIDE1,1:R3-7:R3|PEPTIDE1,PEPTIDE1,1:R1-14:R2$$$V2.0)	1.2
N=C(N)NCCC[C@@H]1NC(=O)CNC(=O)[C@H](CC(=O)O)NC(=O)[C@@H]2CCCN2C(=O)[C@H](Cc2ccccc2)NC(=O)[C@@H]2CSSC[C@H](NC1=O)C(=O)N[C@@H](Cc1ccc(O)cc1)C(=O)N[C@@H](CCCCN)C(=O)N[C@@H](CO)C(=O)N[C@@H](CCCCN)C(=O)N1CCC[C@H]1C(=O)N1CCC[C@H]1C(=O)N[C@@H](CCCNC(=N)N)C(=O)N2 (HELM PEPTIDE1{C.F.P.D.G.R.C.Y.K.S.K.P.P.R}$PEPTIDE1,PEPTIDE1,1:R3-7:R3|PEPTIDE1,PEPTIDE1,1:R1-14:R2$$$V2.0)	4.7
CC[C@H](C)[C@@H]1NC(=O)[C@@H]2CCCN2C(=O)[C@@H]2CCCN2C(=O)[C@H]([C@@H](C)CC)NC(=O)[C@H](CO)NC(=O)[C@H](CCCNC(=N)N)NC(=O)[C@H]([C@@H](C)O)NC(=O)[C@@H]2CSSC[C@H](NC1=O)C(=O)N[C@@H](Cc1ccccc1)C(=O)N1CCC[C@H]1C(=O)N[C@@H](CC(=O)O)C(=O)NCC(=O)N[C@@H](CCCNC(=N)N)C(=O)N2 (HELM PEPTIDE1{C.F.P.D.G.R.C.T.R.S.I.P.P.I}$PEPTIDE1,PEPTIDE1,1:R3-7:R3|PEPTIDE1,PEPTIDE1,1:R1-14:R2$$$V2.0)	120
N=C(N)NCCC[C@@H]1NC(=O)CNC(=O)[C@H](CC(=O)O)NC(=O)[C@@H]2CCCN2C(=O)[C@H](Cc2ccccc2)NC(=O)[C@@H]2CSSC[C@H](NC1=O)C(=O)N[C@@H](Cc1ccc(O)cc1)C(=O)N[C@@H](CCCCN)C(=O)N[C@@H](CO)C(=O)N[C@@H](CCCCN)C(=O)N1CCC[C@H]1C(=O)N1CCC[C@H]1C(=O)N[C@@H](CCC(N)=O)C(=O)N2 (HELM PEPTIDE1{C.F.P.D.G.R.C.Y.K.S.K.P.P.Q}$PEPTIDE1,PEPTIDE1,1:R3-7:R3|PEPTIDE1,PEPTIDE1,1:R1-14:R2$$$V2.0)	1.8
CC[C@H](C)[C@@H]1NC(=O)[C@@H]2CCCN2C(=O)[C@@H]2CCCN2C(=O)[C@H](CCCCN)NC(=O)[C@H](CO)NC(=O)[C@H](CCCNC(=N)N)NC(=O)[C@H](Cc2ccc(O)cc2)NC(=O)[C@@H]2CSSC[C@H](NC1=O)C(=O)N[C@@H](Cc1ccccc1)C(=O)N1CCC[C@H]1C(=O)N[C@@H](CC(=O)O)C(=O)NCC(=O)N[C@@H](CCCNC(=N)N)C(=O)N2 (HELM PEPTIDE1{C.F.P.D.G.R.C.Y.R.S.K.P.P.I}$PEPTIDE1,PEPTIDE1,1:R3-7:R3|PEPTIDE1,PEPTIDE1,1:R1-14:R2$$$V2.0)	8.3
CC[C@H](C)[C@@H]1NC(=O)[C@@H]2CCCN2C(=O)[C@@H]2CCCN2C(=O)[C@H](CCCNC(=N)N)NC(=O)[C@H](CO)NC(=O)[C@H](CCCCN)NC(=O)[C@H]([C@@H](C)O)NC(=O)[C@@H]2CSSC[C@H](NC1=O)C(=O)N[C@@H](Cc1ccccc1)C(=O)N1CCC[C@H]1C(=O)N[C@@H](CC(=O)O)C(=O)NCC(=O)N[C@@H](CCCNC(=N)N)C(=O)N2 (HELM PEPTIDE1{C.F.P.D.G.R.C.T.K.S.R.P.P.I}$PEPTIDE1,PEPTIDE1,1:R3-7:R3|PEPTIDE1,PEPTIDE1,1:R1-14:R2$$$V2.0)	2
N=C(N)NCCC[C@@H]1NC(=O)CNC(=O)[C@H](CC(=O)O)NC(=O)[C@@H]2CCCN2C(=O)[C@H](Cc2ccccc2)NC(=O)[C@@H]2CSSC[C@H](NC1=O)C(=O)N[C@@H](Cc1ccc(O)cc1)C(=O)N[C@@H](CCCCN)C(=O)N[C@@H](CO)C(=O)N[C@@H](CCCCN)C(=O)N1CCC[C@H]1C(=O)N1CCC[C@H]1C(=O)N[C@@H](CCCCN)C(=O)N2 (HELM PEPTIDE1{C.F.P.D.G.R.C.Y.K.S.K.P.P.K}$PEPTIDE1,PEPTIDE1,1:R3-7:R3|PEPTIDE1,PEPTIDE1,1:R1-14:R2$$$V2.0)	2.5

The next compounds have a lower Ki than those just listed; values first:

Ki [nM]	Structure (SMILES)
0.66	N=C(N)NCCC[C@@H]1NC(=O)CNC(=O)[C@H](CC(=O)O)NC(=O)[C@@H]2CCCN2C(=O)[C@H](Cc2ccccc2)NC(=O)[C@@H]2CSSC[C@H](NC1=O)C(=O)N[C@@H](Cc1ccc(O)cc1)C(=O)N[C@@H](CCCCN)C(=O)N[C@@H](CO)C(=O)N[C@@H](CCCCN)C(=O)N1CCC[C@H]1C(=O)N1CCC[C@H]1C(=O)N[C@@H](CC(N)=O)C(=O)N2 (HELM PEPTIDE1{C.F.P.D.G.R.C.Y.K.S.K.P.P.N}$PEPTIDE1,PEPTIDE1,1:R3-7:R3|PEPTIDE1,PEPTIDE1,1:R1-14:R2$$$V2.0)
1.1	CC[C@H](C)[C@@H]1NC(=O)[C@@H]2CCCN2C(=O)[C@@H]2CCCN2C(=O)[C@H](CCCNC(=N)N)NC(=O)[C@H](CO)NC(=O)[C@H](CCCCN)NC(=O)[C@H](Cc2ccc(O)cc2)NC(=O)[C@@H]2CSSC[C@H](NC1=O)C(=O)N[C@@H](Cc1ccccc1)C(=O)N1CCC[C@H]1C(=O)N[C@@H](CCC(=O)O)C(=O)NCC(=O)NC(CCCCNC(=N)N)C(=O)N2 (some centres not stated) (HELM PEPTIDE1{C.F.P.E.G.[N=C(N)NCCCCC(N[*:1])C(=O)[*:2]].C.Y.K.S.R.P.P.I}$PEPTIDE1,PEPTIDE1,1:R3-7:R3|PEPTIDE1,PEPTIDE1,1:R1-14:R2$$$V2.0)
0.66	CC[C@H](C)[C@@H]1NC(=O)[C@@H]2CCCN2C(=O)[C@@H]2CCCN2C(=O)[C@H](CCCCN)NC(=O)[C@H](CO)NC(=O)[C@H](CCCCN)NC(=O)[C@H](Cc2c[nH]c3ccccc23)NC(=O)[C@@H]2CSSC[C@H](NC1=O)C(=O)N[C@@H](Cc1ccccc1)C(=O)N1CCC[C@H]1C(=O)N[C@@H](CC(=O)O)C(=O)NCC(=O)N[C@@H](CCCNC(=N)N)C(=O)N2 (HELM PEPTIDE1{C.F.P.D.G.R.C.W.K.S.K.P.P.I}$PEPTIDE1,PEPTIDE1,1:R3-7:R3|PEPTIDE1,PEPTIDE1,1:R1-14:R2$$$V2.0)
0.61	CC[C@H](C)[C@@H]1NC(=O)[C@@H]2CCCN2C(=O)[C@@H]2CCCN2C(=O)[C@H](CCCCN)NC(=O)[C@H](CO)NC(=O)[C@H](CCCCN)NC(=O)[C@H](Cc2ccccc2)NC(=O)[C@@H]2CSSC[C@H](NC1=O)C(=O)N[C@@H](Cc1ccccc1)C(=O)N1CCC[C@H]1C(=O)N[C@@H](CC(=O)O)C(=O)NCC(=O)N[C@@H](CCCNC(=N)N)C(=O)N2 (HELM PEPTIDE1{C.F.K.S.K.P.P.I.C.F.P.D.G.R}$PEPTIDE1,PEPTIDE1,1:R3-9:R3|PEPTIDE1,PEPTIDE1,1:R1-14:R2$$$V2.0)
